# “Also recorded” adds a separate entry of the source. Read-outs that look alike come from different tables or passages of the source.
# What was measured:
# U266 cells [1] = assay: Cell viability assay (CellTiter-Glo), U266 cells; assay type: cell-based, human
# Protocol: (§1) Cell culture and Reagents: Human MM cell lines MM1.S, U266, and OPM2 were cultured in RPMI-1640 medium supplemented with 10% fetal bovine serum, 100 units/mL penicillin, 100 µg/mL streptomycin at 37° C., 5% CO2. PBMCs were purchased from Lonza Bioscience, USA and maintained overnight in RPMI-1640 medium supplemented with 10% fetal bovine serum, 100 units/mL penicillin, 100 µg/mL streptomycin at 37° C., 5% CO2 before using for experiments. IL-6 and IGF-1 were purchased from R&D Systems. PD98059 was obtained from Cell Signaling Technology. Z-VAD-FMK was purchased from Santa Cruz. Bortezomib was obtained from Sigma. LS1090 [2-((7-nitrobenzo[c][1,2,5]oxadiazol-4-yl)thio)ethyl (3-(trifluoromethyl)phenyl)carbamate] was purchased from MolPort, Inc.M. Maybridge library was purchased from Thermo Fisher Scientific, NeXT Diversity 3500 and Diversity SAR 3500 sets were gifts from NCI.
# (§2) Cell viability assay: Twenty thousand MM1.S, U266, OPM2, and PBMCs in 100 µL of growth media were added per well in a 96-well plate. The cells were incubated for 24 h with serial dilutions of LS1090 stock solution (10 mM in DMSO) or BTZ stock solution (1 mM in DMSO). Dilutions were prepared in growth media. Cells viability was assessed using the CellTiter-Glo luminescence-based assay (Promega). After adding 100 µL CellTiter-Glo reagent, relative luminescence units (RLU) were measured using the Synergy2 plate reader (BioTek) and expressed as a percentage of the untreated cell controls.
# MM.1S cells [2] = assay: Cell viability assay (CellTiter-Glo), MM.1S cells; assay type: cell-based, human; conditions: for EC50: MM1.S
# Protocol: as §1, §2
# [3] = system: MM1.S-GFP-Luc disseminated MM xenograft
# Text: MM1.S cells stably transfected with GFP-firefly Luciferase (MM1.S-GFP-Luc), when administered intravenously (IV) in Fox Chase SCID beige mice, home to the bone marrow (BM) and are readily detectable by bioluminescence imaging (BLI) after 15-21 days from inoculation. On the third week from tumor inoculation, detecting the presence of the MM lesions in BM in mice with BLI photon flux of 106, we initiated therapy.
# The mice were subjected to four dosages of therapy in two days apart over two weeks. The therapy were stopped after four dosages and the tumor progression over time was monitored by in vivo BLI once a week. […] Paralysis or loss of 15% of the original weight were taken as criteria of end point of the mice.
# Each treated mouse received two doses per week separated by 3 days over two weeks for a total of four dosages, and BLI was used to monitor tumor progression. […] The endpoint for the study includes paralysis, loss of 20% of the original weight or sudden death due to the tumor burden before any other symptom appeared.
# Fox Chase SCID Beige mice (From in house colony) (8-10 weeks old) were implanted with MM1.S cells stably transfected with GFP and CBR Luciferase (MM1.S-GFP-Luc) (2 million cells in 100 µL DPBS per mouse) by tail vein injection. […] The progression of tumor was monitored by whole-body BLI once a week post tumor inoculation. […]
# [4] = system: chymotrypsin-like activity of proteasomes; assay: Proteasome-Glo Chymotrypsin-Like activity assay in MM.1S cells; assay type: cell-based, human
# Protocol: Proteasome activity assays: MM.1S cells were seeded in a white 96-well plate at a density of 20000 per well. Cells were treated with 1 µML LS1090 or 100 nM Bz for 4 h before accessing chymotrypsin-like activity using Proteasome-Glo™ Chymotrypsin-Like, (Promega). After adding the Proteasome-Glo™ reagent, luminescence was determined as relative light units (RLU) using the Synergy2 plate reader (BioTek).
# caspase 3/7 = assay: Caspase-Glo3/7 assay in MM.1S cells; assay type: cell-based, human
# Protocol: Apoptosis and caspase activation assays: Caspase3/7 activity was measured using Caspase-Glo3/7 Assay System (Promega). MM.1S cells were seeded in a white 96-well plate at a density of 20000 cells per well. Cells were pretreated with 20 µmol/L PD98059 followed by incubation with 1 µM LS1090 for 4 h at 37° C., 5% CO2 before accessing caspase 3/7 activity. Caspase-Glo3/7 reagent was added directly to the cells and incubated for 30 min before recording luminescence using the Synergy2 plate reader (BioTek). Data were represented as a fold change from the untreated cells control. Kinetics of apoptosis and necrosis was monitored using RealTimeGlo Annexin V Apoptosis and Necrosis Assay (Promega). MM.1S cells were treated with 1 µM LS1090 and incubated in the presence of 100 µL the RealTimeGlo Annexin V Apoptosis and Necrosis reagent at 37° C., 5% CO2. The luminescence and fluorescence signals were monitored for 24 h. Relative luminescence units (RLU) and relative fluorescence units (RFU) were measured at different time points using the Synergy2 plate reader (BioTek).
# Bcl-2 = assay: Western blot of Bcl-2 expression in MM.1S cells; assay type: cell-based, human
# Protocol: (§3) ERK is known to exert its pro-apoptotic function by upregulating p53 and downregulating Bcl-2 expression. […] In contrast, the expression of pro-apoptotic protein, Bax, increased within 1 h post-treatment (FIG. 5H).
# (§4) Cell extract preparation and Western blotting: Protein extracts were prepared by washing cells with PBS (pH 7.4) and suspending in RIPA lysis buffer (20 mM Tris-HCI (pH 7.5), 150 mM NaCl, 1 mM Na2EDTA, 1 mM EGTA, 1% NP-40) containing protease and phosphatase inhibitors (Sigma). Equal amounts of protein, as determined by the BCA protein assay (Thermo Fisher Scientific), were subjected to SDS-PAGE (12% gels; Bio-Rad), followed by transfer to nitrocellulose membrane. Membrane were incubated with 1:1000 anti-ERK1/2 (Thr202/Tyr204, anti-phosphoERK1/2 (Thr202/Tyr204), anti-p53, anti-Bcl2, anti-Bax (Cell Signaling Technology) and anti-βActin (Santa Cruz). Secondary antibodies consisted of horseradish peroxidase-conjugated goat anti-rabbit IgG or goat anti-mouse IgG (Sigma). Detection was done by the enhanced chemiluminescence method (Thermo Fisher Scientific).
# ERK1/2 = assay: Western blot of ERK1/2 activation in MM.1S cells; assay type: cell-based, human
# Protocol: ERK1/2 signaling plays an essential role in the cascade of apoptosis-mediated cell death. To interrogate its involvement, MM.1S cells were treated with LS1090 and Western blots used to determine ERK1/2 activation. […] Given that ERK1/2 signaling can utilize caspase-dependent or independent pathways to induce apoptosis, LS1090 mediated activation of caspase 3/7 in MM.1S cells was examined in the presence or absence of ERK1/2 activation inhibitor, PD98059. […] The consequential effect of caspase 3/7 activation on cell death was further validated by determining the viability of LS1090-treated MM1.S cells in the presence or absence of the caspase inhibitor, Z-VAD-fmk.
# Cell extract preparation and Western blotting: Protein extracts were prepared by washing cells with PBS (pH 7.4) and suspending in RIPA lysis buffer (20 mM Tris-HCI (pH 7.5), 150 mM NaCl, 1 mM Na2EDTA, 1 mM EGTA, 1% NP-40) containing protease and phosphatase inhibitors (Sigma). Equal amounts of protein, as determined by the BCA protein assay (Thermo Fisher Scientific), were subjected to SDS-PAGE (12% gels; Bio-Rad), followed by transfer to nitrocellulose membrane. […]
# U266 cells [5] = assay: RealTime-Glo Annexin V Apoptosis and Necrosis Assay, U266 cells; assay type: cell-based, human; conditions: monitored 24 h
# MM.1S cells [6] = assay: RealTime-Glo Annexin V Apoptosis and Necrosis Assay, MM.1S cells; assay type: cell-based, human
# Text: LS1090 activates ERK1/2 to induce apoptosis in MM cells via a p53-independent pathway: Chemotherapeutics exert their effects via multiple cell death pathways, including apoptosis and necrosis. To determine the dominant mechanism of LS1090-induced MM cell death, RealTime-Glo Annexin V Apoptosis and Necrosis Assay were used, which report both pathways simultaneously. The method reports apoptosis by detecting phosphatidylserine on the outer leaflet of cell membranes and necrosis by measuring plasma membrane integrity. […] This delayed necrosis onset points to a cell death mechanism where pro-apoptosis induction transforms into secondary necrosis when phagocytes are not available to remove apoptotic cells.
# Apoptosis and caspase activation assays: Caspase3/7 activity was measured using Caspase-Glo3/7 Assay System (Promega). MM.1S cells were seeded in a white 96-well plate at a density of 20000 cells per well. […] Caspase-Glo3/7 reagent was added directly to the cells and incubated for 30 min before recording luminescence using the Synergy2 plate reader (BioTek). […] Kinetics of apoptosis and necrosis was monitored using RealTimeGlo Annexin V Apoptosis and Necrosis Assay (Promega). […] The luminescence and fluorescence signals were monitored for 24 h. Relative luminescence units (RLU) and relative fluorescence units (RFU) were measured at different time points using the Synergy2 plate reader (BioTek).
# [7] = system: IGR Cap1, HT1080, and MDA MB231; assay: Viability of selected cancer cell lines after 24 h with LS1090; assay type: cell-based; conditions: 1 µM LS1090, 24 h
# Protocol: Cells were treated with LS1090 for 24h, followed by assessment of viability using CellTitler-Glow assay. n=4 for each condition.
# Additionally, the viability of selected cancer cell lines were evaluated (IGR Cap1, HT1080, and MDA MB231) after 24 h incubation with LS1090 (see, e.g. FIGS. 9-11).
# p53 = assay: Western blot of p53 expression in MM.1S cells; assay type: cell-based, human
# Protocol: as §3, §4
# 5TGM1 = assay: Growth inhibition of mouse MM cell line 5TGM1; assay type: cell-based
# OPM2 cells = assay: Cell viability assay (CellTiter-Glo), OPM2 cells; assay type: cell-based; conditions: OPM-2, human OPM2 cells
# Protocol: as §1
# as §2, with “The cells were incubated for 24 h with serial dilutions of LS1090 stock solution (10 mM in DMSO) or BTZ stock solution (1 mM in DMSO). Dilutions were prepared in growth media.” left out
# PBMCs = assay: Cell viability assay (CellTiter-Glo), nontumor PBMCs; assay type: cell-based; conditions: 24 h incubation, at the EC50/IC50 for MM1.S (0.49 µM) and higher
# Protocol: Cell culture and Reagents: Human MM cell lines MM1.S, U266, and OPM2 were cultured in RPMI-1640 medium supplemented with 10% fetal bovine serum, 100 units/mL penicillin, 100 µg/mL streptomycin at 37° C., 5% CO2. PBMCs were purchased from Lonza Bioscience, USA and maintained overnight in RPMI-1640 medium supplemented with 10% fetal bovine serum, 100 units/mL penicillin, 100 µg/mL streptomycin at 37° C., 5% CO2 before using for experiments. […] Bortezomib was obtained from Sigma.
# Bax = assay: Western blot of Bax expression in MM.1S cells; assay type: cell-based, human
# Protocol: as §3, §4
compound,measurement,setting,value
"CC(C)C[C@H](NC(=O)[C@H](Cc1ccccc1)NC(=O)c1cnccn1)B(O)O [BTZ, Bortezomib, reference compound]",sensitivity of U266 cells to BTZ relative to MM.1S cells (less sensitive),U266 cells [1]; U266 versus MM.1S,10 fold
same,EC50,"MM.1S cells [2]; Homo sapiens, MM.1S cells, read-out: EC50 of BTZ alone",0.002 µM
same,EC50 of BTZ with increasing concentration ratio of LS1090 to BTZ,"MM.1S cells [2]; MM.1S cells, in combination with LS1090",0.0014 µM
same,"course of disease, BTZ","[3]; 0.5 mg/kg or 1.0 mg/kg IP, same regimen",experienced early remission and relapsed after 6-week post-inoculation
same,toxicity of BTZ dose over 1 mg/Kg,[3]; BTZ over 1 mg/Kg IP,lethal effect on mice after the second dose
same,"chymotrypsin-like activity in MM.1S cells, BTZ","[4]; 0.1 µM, 4 h",efficiently inhibits
Z-VAD-fmk [reference compound],LS1090-induced cell death on co-incubation with Z-VAD-fmk,"MM.1S cells [2]; MM1.S cells, p< 0.0001",inhibited this event
"COc1cccc(-c2cc(=O)c3ccccc3o2)c1N [PD98059, reference compound]",LS1090-triggered caspase 3/7 activity in the presence of PD98059,"caspase 3/7; MM.1S cells pretreated with 20 µmol/L PD98059, then 1 µM LS1090 4 h",inhibited
"O=C(Nc1cccc(C(F)(F)F)c1)OCCSc1ccc([N+](=O)[O-])c2nonc12 [LS1090, 2-((7-nitrobenzo[c][1,2,5]oxadiazol-4-yl)thio)ethyl (3-(trifluoromethyl)phenyl)carbamate]",Bcl-2 expression after treatment,Bcl-2,did not downregulate
same,cytotoxicity at 1 µM,"U266 cells [1]; Homo sapiens, U-266, 1 µM LS1090, read-out: decrease of viability of U266 cells",55%
same,IC50,"U266 cells [1]; U-266, human U266 cells",0.44 µM
same,EC50,"U266 cells [1]; U-266, human U266 cells, 24 h",0.44 µM
same,duration of activated ERK1/2 state,ERK1/2,sustained over 3 h
same,time to ERK1/2 phosphorylation post-treatment,ERK1/2,less than 1 h
same,cells eradicated,"MM.1S cells [2]; LS1090-treated MM1.S cells, absence of Z-VAD-fmk",60%
same,EC50,"MM.1S cells [2]; human MM.1S cells, 24 h, read-out: EC50, MM.1S",0.49 µM
same,cytotoxicity in the presence of recombinant IL-6 or IGF-1,"MM.1S cells [2]; MM.1S cells, 24 h",neither recombinant IL-6 nor IGF-1 blocked
same,IC50,MM.1S cells [2]; human MM1.S cells,0.49 µM
same,apoptosis-necrosis time pattern,U266 cells [5],same apoptosis-necrosis pattern
same,time of apoptosis peak post-treatment,MM.1S cells [6]; MM cells treated with LS1090 (1 µM),about 10 h
same,apoptosis-necrosis time pattern,"MM.1S cells [6]; MM.1S cells, monitored 24 h",necrosis lagged apoptosis
same,effect on viability of selected cancer cell lines,[7],had an effect on all tested cancer cell lines
same,p53 expression after treatment,p53,lack of p53 enhancement
same,IC50,"5TGM1; 5TGM1, mouse MM cell line 5TGM",0.32 µM
same,EC50,5TGM1; mouse MM cell line 5TGM1,0.32 µM
same,IC50,OPM2 cells,0.49 µM
same,EC50,OPM2 cells; 24 h,0.49 µM
same,"chymotrypsin-like activity in MM.1S cells, LS1090",[4]; 4 h incubation at ten-fold the concentration of BTZ,did not significantly perturb
same,increase in caspase 3/7 activity,"caspase 3/7; MM.1S cells, 1 µM LS1090, 4 h incubation, fold change from untreated cells",over seven-fold increase
same,cytotoxicity on PBMCs,PBMCs,significant toxic effect; also recorded: significant cytotoxicity
same,time to increased Bax expression post-treatment,Bax,≤ 1 h

# Reference: US20230365516A1, “COMPOUNDS FOR CANCER THERAPY AND IMAGING” (Washington University, priority 2020, published 2023)
